Results taken from PMC11928584, “H105A peptide eye drops promote photoreceptor survival in murine and human models of retinal degeneration” (Communications Medicine, 2025).
Where a SMILES comes first, the peptide text is derived from it.

Experiments:
[1] = tested on: photoreceptors of rd10 mice; assay: PSVue-550 fluorescence fundoscopy of photoreceptor cell death (PS externalization); format: in vivo, mouse; conditions: for PS externalization / photoreceptor cell death vs vehicle: daily eye drops 5 µl of 1 mg/ml from P15, PSVue-550 fundoscopy P21
Text: (§1) Fluorescence fundoscopy with a cell death probe was chosen as a simple method for monitoring photoreceptor cell death in alive animals. A fluorescent probe, bis (zinc^2+-dipicolylamine)-550, (PSVue®-550) (Molecular Targeting Technologies Inc, cat. P-1005) was reconstituted in Hanks’ Balanced Salt Solution (HBSS, Quality Biological, cat. 114-062-101) according to the manufacturer’s instructions[28],[36]. This probe is suitable for in vivo use to specifically and transiently label dying photoreceptors, such as in living rats with retinal degeneration the Royal College of Surgeons rat model, in a non-invasive and non-toxic method without the need of intraocular injection. Briefly, a stock of 1 mM solution of PSVue®-550 was stored in the dark at 4 °C and used within 14 days directly as eye drop. After 3-4 h of light onset each mouse received eye drops of 5–10 μl of 1 mM PSVue®-550 in the left eye and HBSS in the right eye as control. The eye drop volume was chosen such that the eye cavity was filled without spillage outside the eye, and it was modified depending on eye size. […] To obtain in vivo retinal images of fundi, at 24 h after the probe was administered, the mice were anesthetized, and pupils were dilated with 1% tropicamide for 5 min and kept hydrated with GenTeal. Fluorescence was imaged using a retinal imaging microscope (Micron III, Phoenix Research Labs) using an FF02- 475/50 nm excitation filter (Semrock, Inc.). We observed some variability in optic nerve (ON) fluorescence that could not be readily explained, so the optic nerve was excluded from analyses in all samples.
(§2) To determine the natural history of photoreceptor death of rd10 and rd10/Serpinf1^-/- mice, we assessed photoreceptor cell death in live mice using the fluorescent probe termed PSVue® 550 to monitor PS externalization by fluorescence fundoscopy (Supplementary Fig. 2). Given the reports about the retinas of rd10 mice starting to show histological changes at P16, and with a peak in the number of TUNEL+ nuclei in the ONL at P17-18[13], we monitored PS externalization in photoreceptors of these mice undergoing degeneration before death onset. Eye drops of 1 mM PSVue® 550 solution in HBSS were administered to left eyes and HBSS (vehicle) to their contralateral right eyes of each mouse at ages P16, P20, P22 or P24. PS externalization was determined by fluorescence fundoscopy 24 h post-administration. PSVue labeling of phosphatidylserine (PS) externalization associated with photoreceptor cell death in the rd10 retina (Supplementary Figs. 2, 3).
(§3) Fig. 2 Effect of PEDF peptide eye drops on protection against photoreceptor cell death in rd10 and rd10/Serpinf1^-/- mice. a Illustration of the experimental timeline of peptide application. Eye drops containing 5 µl of 17-mer, H105A, or R99A peptides in HBSS were administered daily to eyes of rd10 and rd10/Serpinf1^-/- mice from P15 to P20. Vehicle (HBSS) was applied in contralateral eyes. At P20, PSVue® was applied via eye drops, and fluorescence fundoscopy was conducted at P21 to assess photoreceptor cell death. RE and LE refer to the right and left eyes, respectively. b Fluorescence fundoscopy micrographs. Representative fluorescence fundoscopy images of retinas from mice treated as in Panel a with eyedrops of 1 mg/ml of each peptide. Quantification of fluorescence intensity was performed using ImageJ, with average intensity values corrected for background fluorescence from eyes that had not received PSVue or peptides. Each line represents data from one animal comparing treated and contralateral eyes, with five eyes (n = 5) per condition. Statistical significance was determined by paired t-test (****p ≤ 0.0001, and ns > 0.05). Scale bar = 0.5 mm. c Dose response of peptide eye drops. Representative fluorescence fundoscopy micrographs showing retinas treated with varying concentrations of 17-mer and H105A peptides (0.0 mg/ml to 1.0 mg/ml) in rd10 and rd10/Serpinf1^-/- mice. […]

[2] = tested on: photoreceptors of rd10/Serpinf1-/- mice; assay: as above; format: in vivo, mouse; conditions: daily eye drops 5 µl of 1 mg/ml from P15, PSVue-550 fundoscopy P21
Text: as §1, §2, §3

Structure (SMILES)	PS externalization / photoreceptor cell death vs vehicle [1]	eye drop concentration effective in restraining PS externalization (as low as) ([1]; titration 0.0-1.0 mg/ml, daily eye drops) [mg/mL]	PS externalization / photoreceptor cell death vs vehicle [2]
CC[C@H](C)[C@H](NC(=O)[C@H](CC(C)C)NC(=O)[C@H](CC(=O)O)NC(=O)[C@H](Cc1ccc(O)cc1)NC(=O)[C@H](Cc1ccc(O)cc1)NC(=O)[C@H](CC(C)C)NC(=O)[C@H](C)NC(=O)[C@H](CCCNC(=N)N)NC(=O)[C@H](C)NC(=O)[C@@H](NC(=O)[C@@H](NC(=O)[C@H](CO)NC(=O)[C@H](CCC(=O)O)NC(=O)[C@@H](NC(=O)[C@H](CCCNC(=N)N)NC(=O)[C@@H](N)CCC(N)=O)[C@@H](C)O)[C@@H](C)CC)[C@@H](C)CC)C(=O)N[C@@H](CO)C(=O)O [H105A] (H-QRTESIIARALYYDLIS-OH)	diminished fundi fluorescence	0.5	diminished fundi fluorescence
CC[C@H](C)[C@H](NC(=O)[C@H](CC(C)C)NC(=O)[C@H](CC(=O)O)NC(=O)[C@H](Cc1ccc(O)cc1)NC(=O)[C@H](Cc1ccc(O)cc1)NC(=O)[C@H](CC(C)C)NC(=O)[C@H](C)NC(=O)[C@H](CCCNC(=N)N)NC(=O)[C@H](Cc1c[nH]cn1)NC(=O)[C@@H](NC(=O)[C@@H](NC(=O)[C@H](CO)NC(=O)[C@H](CCC(=O)O)NC(=O)[C@@H](NC(=O)[C@H](C)NC(=O)[C@@H](N)CCC(N)=O)[C@@H](C)O)[C@@H](C)CC)[C@@H](C)CC)C(=O)N[C@@H](CO)C(=O)O [R99A] (H-QATESIIHRALYYDLIS-OH)	no major efficacy		no major efficacy
